Laboratory results from patent US10183936B2, “Hepatitis B core protein allosteric modulators” (priority 2014, dated 2019).

Assays:
[1] = tested on: HBV viral production in AD38 cells; test: Viral load production in AD38 cells by quantitative PCR of the HBV core sequence in supernatant; type: cell-based; conditions: 10 μM compound, 6 days at 37° C., viral load in supernatant compared against DMSO control wells; for activity at 10 µM: Hepatitis B virus, 144 h, read-out: AD38 Viral Load (CpAM/DMSO %) at 10 μM
In short: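 Read-out is TaqMan qPCR of the HBV core region in supernatant, quantitated against standards and referenced to DMSO controls (≥3 per plate). Cells: AD38 at 50,000/well, exposed to compound (added as 10× stock in 10% DMSO) for 6 days at 37° C.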

AD38 cells = test: Viability of AD38 cells (Promega CellTiter-Glo) at the end of compound treatment; type: cell-based; conditions: 10 μM compound, 6 days, luminescence normalized against DMSO control wells (controls being 100%)
In short: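 Luminescent CellTiter-Glo read-out, taken after supernatant was swapped for tetracycline-free 2% FBS medium with 1% DMSO, gave percent viability relative to DMSO controls set at 100%. Cells were plated at 50,000/well and exposed to compound, added as a 10× stock in 10% DMSO, for 6 days at 37° C.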

SMILES | activity at 10 µM [1] [%] | AD38 Viability Normalized Result (CPAM/DMSO %) at 10 μM (AD38 cells) [%] | AD38 Viral Load (CpAM/DMSO %) at 10 μM [1] [%]
O=C(NCCc1cncs1)c1ccc2c(c1)NC(=O)c1ccccc1[S+]2[O-] (stereo not drawn) [Compound 1527] | 19 | 116 | –
O=C(NCCc1cncs1)c1ccc2c(c1)NC(=O)c1cccc(F)c1S2 [Compound 1528] | 4 | 85 | –
Cc1c(C(=O)NCCc2cncnc2)ccc2c1NC(=O)c1ccccc1S2 [Compound 1529] | 12 | 111 | –
O=C1Nc2c(cc(F)c(C(=O)NCc3cnco3)c2F)Sc2ccccc21 [Compound 1530] | 70 | 93 | –
O=C1Nc2c(cc(F)c(C(=O)NCCc3cccnc3)c2F)Sc2ccccc21 [Compound 1531] | 53 | 96 | –
CN1c2ccc(C(=O)NCCc3cncs3)cc2NC(=O)c2ccccc21 [Compound 1532] | 17 | 112 | –
CCN1c2ccc(C(=O)NCc3cncnc3)cc2NC(=O)c2ccccc21 [Compound 1533] | 2 | 105 | –
CCN1c2ccc(C(=O)NCc3cncs3)cc2NC(=O)c2ccccc21 [Compound 1534] | 5 | 109 | –
O=C(NCc1cncs1)c1ccc2c(c1)NC(=O)c1ccccc1[SH]2O (stereo not drawn) [Compound 1535] | – | 85 | 108
O=C(NCc1cncs1)c1ccc2c(c1)NC(=O)c1ccccc1[SH]2O (stereo not drawn) [Compound 1536] | – | 120 | 2
O=C(Nc1nnco1)c1ccc2c(c1)NC(=O)c1cc(F)ccc1S2 [Compound 1537] | 36 | 98 | –
O=C(NCc1cncnc1)c1ccc2c(c1)NC(=O)c1c(F)cccc1S2 [Compound 1540] | 12 | 87 | –
O=C(NCc1cncs1)c1ccc2c(c1)NC(=O)c1c(F)cccc1S2 [Compound 1541] | 11 | 117 | –
O=C(NCc1cnco1)c1ccc2c(c1)NC(=O)c1c(F)cccc1S2 [Compound 1542] | 34 | 95 | –
O=C(NCCc1cncnc1)c1ccc2c(c1)NC(=O)c1c(F)cccc1S2 [Compound 1543] | 72 | 90 | –
O=C1Nc2cc(S(=O)(=O)Nc3ccc(Cl)cc3F)ccc2Sc2ccccc21 [Compound 1544] | 40 | 97 | –
O=C1Nc2c(cc(F)c(C(=O)NCc3cncs3)c2F)Sc2ccccc21 [Compound 1545] | 59 | 88 | –
O=C1Nc2c(cc(F)c(C(=O)NCc3cccnc3)c2F)Sc2ccccc21 [Compound 1546] | 65 | 89 | –
CN1c2ccc(C(=O)NCc3cnco3)cc2NC(=O)c2ccccc21 [Compound 1547] | 16 | 90 | –
CN1c2ccc(C(=O)NCCc3cncnc3)cc2NC(=O)c2ccccc21 [Compound 1548] | 28 | 85 | –
CN1c2ccc(C(=O)NCCc3cccnc3)cc2NC(=O)c2ccccc21 [Compound 1549] | 7 | 109 | –
CCN1c2ccc(C(=O)NCc3cccnc3)cc2NC(=O)c2ccccc21 [Compound 1550] | 1 | 87 | –
O=C(NCCc1nnc[nH]1)c1ccc2c(c1)NC(=O)c1ccccc1S2 [Compound 1551] | 51 | 91 | –
O=C(NC(Cc1nnc[nH]1)c1ccccc1)c1ccc2c(c1)NC(=O)c1ccccc1S2 (stereo not drawn) [Compound 1552] | 64 | 93 | –
